“Also recorded” adds a separate entry of the source.
Assays:
[1] = biological target: T1, MMP-1 cleaved type I collagen (Rattus norvegicus, UniProt P02454+P02466); experiment: Photo-triggered CMP binding assay on MMP-1 digested collagen; details: MMP-1 digested collagens after the 37° C. incubation; UV-activated
T1 construct: purchased BD Science (collagen); EMD Millipore (ProMMP-1); host or cells: rat tail; digested in house
Procedure: (§1) MMP-1 digestion of type I collagen and CMP binding assays. ProMMP-1 (1 μg, EMD Millipore) was activated by p-aminophenylmercuric acetate (1.1 mM) in 132.5 μL of TNC buffer (50 mM Tris-HCl, 0.15 M NaCl, 5 mM CaCl2, 0.02% NaN3, pH 7.5) at 37° C. for 3 hr. Type I collagen (62.6 μg) was subsequently added to the MMP-1 solution and incubated at room temperature for at least 3 days. Digested products were analyzed by SDS-PAGE and circular dichroism spectroscopy (FIG. 12). Wells of nunc black 96-well maxisorp plate were charged with 50 μL of TNC buffer containing 0.5 M glycerol, and 100 μg/mL collagen or MMP-1 cleaved collagen, and incubated at room temperature. The collagen solutions used were either kept at room temperature (22° C.) or incubated at 37° C. for 1 minute just prior to coating. […] Wells were washed extensively with PBSB followed by fluorescence (ex: 489 nm, em: 533 nm) reading with a SpectraMax M-2 microplate reader (Molecular Devices). […] The background fluorescence of empty wells was subtracted from the raw fluorescence data. For estimating the amount of adsorbed protein, un-blocked collagen-coated wells were treated with 100 μM 5-(4,6-dichlorotriazinyl)aminofluorescein (DTAF, 50 μL, in 0.1 M sodium borate buffer) at room temperature for 3 hours, and the fluorescence (ex: 489 nm, em: 533 nm) of the well was measured after washing with 1×PBS. […]

intact type I collagen = biological target: T2, intact type I collagen (Rattus norvegicus, UniProt P02454+P02466); experiment: Photo-triggered CMP binding assay on intact non-fibrillar collagen; details: intact collagens, before and after 37° C. incubation; UV-activated
T2 construct: type I rat tail, BD Science; purchased BD Science; host or cells: rat tail
Procedure: as §1

[2] = tested on: whole cell lysate of human umbilical vein endothelial cells (HUVEC); experiment: SDS-PAGE staining by heat activated fluorescent CMP, cell lysate; assay type: binding; details: 6 μM
Procedure: (§2) To prepare MMP-1 cleaved collagen chain fragments, proMMP-1 (1 μg) was activated by p-aminophenylmercuric acetate (1.1 mM) in 132.5 μL of TNC buffer (50 mM Tris-HCl, 0.15 M NaCl, 5 mM CaCl2, 0.02% NaN3, pH 7.5) at 37° C. for 3 hr, after which type I collagen (62.6 μg) was added to the activated MMP-1 solution and incubated at room temperature for at least 3 days. To obtain the cell lysate, confluent HUVECs cultured in EGM-2 media at 37° C. were lysed with lysis buffer (25 mM Tris-HCl, 0.5% Triton X-100, 200 mM NaCl, 2 mM EDTA, phosphatase and protease inhibitors; Roche Applied Science). The lysate solution was spun at 15,000 g for 15 min and the supernatant was collected. The recombinant streptococcal collagen-like protein Scl2.28CL was expressed and characterized following the methods introduced by Mohs et al. (J. Biol. Chem. 282, 29757-29765 (2007)).
(§3) SDS-PAGE staining and imaging. Proteins were resolved on NuPAGE® Novex 4-12% bis-tris gels under denaturating conditions using an XCell SureLock™ Mini-Cell electrophoresis system (Life Technologies). […] The fluorescence intensities of the protein bands were quantified using GE ImageQuant™ TL software. After fluorescence imaging, all gels were further stained with coomassie brilliant blue (CB) G-250 (Bio-Rad) for 2-3 hr followed by washing, and imaging under white light illumination using a Gel Doc EQ system (BioRad).

[3] = tested on: streptococcal collagen-like protein Scl2.28CL; experiment: SDS-PAGE staining of collagen-like protein Scl2.28CL; assay type: binding, Streptococcus pyogenes; details: 6 μM, heat activated, 2.5 μg, gel fixed with glutaraldehyde
Procedure: as §2, §3

T2 sequence (P02454 152-1207 limits assumed): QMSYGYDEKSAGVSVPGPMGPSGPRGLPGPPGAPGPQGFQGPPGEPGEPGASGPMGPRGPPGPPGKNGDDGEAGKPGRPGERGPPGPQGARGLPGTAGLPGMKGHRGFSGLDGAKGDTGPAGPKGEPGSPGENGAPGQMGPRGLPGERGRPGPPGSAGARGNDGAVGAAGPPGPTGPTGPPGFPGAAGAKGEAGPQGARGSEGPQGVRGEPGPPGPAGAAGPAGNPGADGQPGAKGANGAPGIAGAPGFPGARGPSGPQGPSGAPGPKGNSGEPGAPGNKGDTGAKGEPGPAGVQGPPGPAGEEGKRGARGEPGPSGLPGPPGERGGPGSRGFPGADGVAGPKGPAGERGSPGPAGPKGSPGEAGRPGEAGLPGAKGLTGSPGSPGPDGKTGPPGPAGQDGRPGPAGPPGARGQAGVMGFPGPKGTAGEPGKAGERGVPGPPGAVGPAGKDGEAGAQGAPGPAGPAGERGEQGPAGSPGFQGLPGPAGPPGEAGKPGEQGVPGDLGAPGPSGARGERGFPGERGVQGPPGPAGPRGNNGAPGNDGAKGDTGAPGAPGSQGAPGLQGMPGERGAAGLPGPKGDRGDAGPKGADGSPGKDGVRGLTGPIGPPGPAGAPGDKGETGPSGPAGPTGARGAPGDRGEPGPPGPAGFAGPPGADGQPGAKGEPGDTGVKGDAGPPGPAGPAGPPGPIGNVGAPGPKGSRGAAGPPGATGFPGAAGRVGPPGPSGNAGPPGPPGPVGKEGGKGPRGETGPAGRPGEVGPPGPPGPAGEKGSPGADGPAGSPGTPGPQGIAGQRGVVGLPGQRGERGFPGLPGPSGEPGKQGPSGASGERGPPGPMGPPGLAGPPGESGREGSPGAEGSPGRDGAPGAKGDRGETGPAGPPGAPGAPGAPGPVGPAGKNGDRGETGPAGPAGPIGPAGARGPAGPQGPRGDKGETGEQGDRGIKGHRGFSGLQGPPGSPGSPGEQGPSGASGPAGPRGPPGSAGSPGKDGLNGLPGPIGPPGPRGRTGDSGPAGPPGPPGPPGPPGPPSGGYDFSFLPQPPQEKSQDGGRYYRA
T2 sequence (P02466 86-1125 limits assumed): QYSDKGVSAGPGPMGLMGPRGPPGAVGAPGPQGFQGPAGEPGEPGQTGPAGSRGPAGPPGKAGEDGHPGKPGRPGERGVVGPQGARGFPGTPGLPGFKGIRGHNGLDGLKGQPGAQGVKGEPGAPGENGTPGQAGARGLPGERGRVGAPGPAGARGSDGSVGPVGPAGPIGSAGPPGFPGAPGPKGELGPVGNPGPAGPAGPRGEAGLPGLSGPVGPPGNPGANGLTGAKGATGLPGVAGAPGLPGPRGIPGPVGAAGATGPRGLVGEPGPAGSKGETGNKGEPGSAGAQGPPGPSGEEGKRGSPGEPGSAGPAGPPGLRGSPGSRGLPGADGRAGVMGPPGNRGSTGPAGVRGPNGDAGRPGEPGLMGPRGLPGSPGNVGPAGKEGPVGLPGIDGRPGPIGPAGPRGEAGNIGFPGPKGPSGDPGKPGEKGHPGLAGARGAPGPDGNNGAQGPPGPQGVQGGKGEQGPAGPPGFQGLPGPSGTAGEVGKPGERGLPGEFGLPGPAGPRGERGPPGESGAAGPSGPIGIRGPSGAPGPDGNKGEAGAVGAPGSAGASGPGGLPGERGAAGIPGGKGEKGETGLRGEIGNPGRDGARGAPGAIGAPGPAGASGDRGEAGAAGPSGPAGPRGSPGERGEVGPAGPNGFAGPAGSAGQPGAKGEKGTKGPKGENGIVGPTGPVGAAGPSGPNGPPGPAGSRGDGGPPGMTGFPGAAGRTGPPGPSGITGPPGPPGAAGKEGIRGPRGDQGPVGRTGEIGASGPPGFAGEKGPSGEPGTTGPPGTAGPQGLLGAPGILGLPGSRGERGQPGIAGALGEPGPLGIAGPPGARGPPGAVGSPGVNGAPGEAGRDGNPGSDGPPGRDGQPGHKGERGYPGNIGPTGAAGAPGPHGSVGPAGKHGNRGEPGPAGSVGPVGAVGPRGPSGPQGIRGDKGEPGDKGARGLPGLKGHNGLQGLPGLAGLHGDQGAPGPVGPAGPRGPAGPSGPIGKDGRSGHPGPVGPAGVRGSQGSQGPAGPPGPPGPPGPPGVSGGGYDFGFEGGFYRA
T1 sequence (P02454 152-942 limits assumed): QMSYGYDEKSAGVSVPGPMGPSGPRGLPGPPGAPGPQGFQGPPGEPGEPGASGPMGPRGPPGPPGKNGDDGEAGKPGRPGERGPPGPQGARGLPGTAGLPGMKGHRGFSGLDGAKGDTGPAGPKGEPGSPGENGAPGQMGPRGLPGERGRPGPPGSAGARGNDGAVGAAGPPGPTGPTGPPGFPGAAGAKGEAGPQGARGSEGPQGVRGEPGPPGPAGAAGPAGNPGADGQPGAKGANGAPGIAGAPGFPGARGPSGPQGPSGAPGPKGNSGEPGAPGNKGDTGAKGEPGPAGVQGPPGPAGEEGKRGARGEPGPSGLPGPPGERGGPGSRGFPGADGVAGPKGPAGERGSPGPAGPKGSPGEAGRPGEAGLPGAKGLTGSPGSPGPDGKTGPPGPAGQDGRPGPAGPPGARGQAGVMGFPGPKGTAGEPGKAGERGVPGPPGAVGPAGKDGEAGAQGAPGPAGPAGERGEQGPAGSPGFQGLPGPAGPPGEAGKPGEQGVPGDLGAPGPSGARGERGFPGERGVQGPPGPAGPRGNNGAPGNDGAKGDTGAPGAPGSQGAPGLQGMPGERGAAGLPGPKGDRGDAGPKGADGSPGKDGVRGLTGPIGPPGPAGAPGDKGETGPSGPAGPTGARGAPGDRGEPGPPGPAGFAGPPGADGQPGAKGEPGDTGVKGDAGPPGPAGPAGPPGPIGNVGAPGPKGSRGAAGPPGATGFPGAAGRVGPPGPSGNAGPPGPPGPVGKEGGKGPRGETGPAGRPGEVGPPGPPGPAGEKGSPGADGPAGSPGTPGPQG
T1 sequence (P02454 943-1207 limits assumed): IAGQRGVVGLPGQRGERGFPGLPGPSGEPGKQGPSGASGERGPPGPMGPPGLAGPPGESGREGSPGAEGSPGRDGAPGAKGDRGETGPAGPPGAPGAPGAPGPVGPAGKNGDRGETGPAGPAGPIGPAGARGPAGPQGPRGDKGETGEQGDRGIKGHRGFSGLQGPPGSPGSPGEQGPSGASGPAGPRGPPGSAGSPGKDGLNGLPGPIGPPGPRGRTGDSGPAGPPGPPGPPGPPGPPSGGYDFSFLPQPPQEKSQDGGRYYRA
T1 sequence (P02466 86-871 limits assumed): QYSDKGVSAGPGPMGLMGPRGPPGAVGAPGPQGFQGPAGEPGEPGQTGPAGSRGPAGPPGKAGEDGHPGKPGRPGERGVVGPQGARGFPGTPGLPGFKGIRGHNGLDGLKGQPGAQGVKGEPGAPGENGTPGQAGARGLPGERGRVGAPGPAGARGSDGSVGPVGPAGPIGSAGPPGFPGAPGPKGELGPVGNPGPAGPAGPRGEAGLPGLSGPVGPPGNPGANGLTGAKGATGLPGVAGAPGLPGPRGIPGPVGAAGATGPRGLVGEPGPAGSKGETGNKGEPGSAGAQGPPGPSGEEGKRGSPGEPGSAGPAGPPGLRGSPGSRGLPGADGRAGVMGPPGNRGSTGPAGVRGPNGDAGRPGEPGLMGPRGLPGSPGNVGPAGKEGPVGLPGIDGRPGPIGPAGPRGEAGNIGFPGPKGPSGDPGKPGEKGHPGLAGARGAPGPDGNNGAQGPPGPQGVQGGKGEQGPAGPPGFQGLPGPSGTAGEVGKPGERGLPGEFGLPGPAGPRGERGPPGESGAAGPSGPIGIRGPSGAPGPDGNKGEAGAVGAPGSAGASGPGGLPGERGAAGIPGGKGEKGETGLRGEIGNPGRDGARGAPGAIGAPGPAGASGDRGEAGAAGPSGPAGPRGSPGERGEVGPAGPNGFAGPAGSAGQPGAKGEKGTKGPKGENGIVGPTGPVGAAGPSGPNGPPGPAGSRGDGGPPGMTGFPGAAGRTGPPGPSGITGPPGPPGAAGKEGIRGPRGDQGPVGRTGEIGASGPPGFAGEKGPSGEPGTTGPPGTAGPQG
T1 sequence (P02466 872-1125 limits assumed): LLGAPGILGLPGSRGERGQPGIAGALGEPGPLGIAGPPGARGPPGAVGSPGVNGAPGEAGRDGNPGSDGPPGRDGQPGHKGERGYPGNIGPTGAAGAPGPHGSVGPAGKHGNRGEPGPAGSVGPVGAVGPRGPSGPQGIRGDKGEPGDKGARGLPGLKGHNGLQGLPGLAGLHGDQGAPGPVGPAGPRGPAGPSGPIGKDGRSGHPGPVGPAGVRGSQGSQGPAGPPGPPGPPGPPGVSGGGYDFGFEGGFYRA

Row | Substance | level of CMP binding, fold higher compared to all other collagens tested [1] | level of CMP binding (intact type I collagen) | staining of cell lysate protein bands [2] | staining of Scl2.28CL bands [3]
1 | CF-GGG-(GPO)4^NBGPO(GPO)4 [CF^NB(GPO)9] | 4-10 fold | similarly low |  | 
2 | CF-GGG-(GPO)9 [CF(GPO)9] |  |  | no protein band was visualized | failed to stain; also recorded: almost no staining of the Scl2.28CL band

Source: patent publication US10426850B2, “Collagen mimetic peptides for targeting collagen strands for in vitro and in vivo imaging and therapeutic use” (The Johns Hopkins University, priority 2011, dated 2019)
